Reference: the supplement of paper PMC11451515

Legend:
Test in all cases: AUC of viability dose-response curve (% viability x log10 dose units); higher = less sensitive
Conditions in all cases: 48 h
NOMO1 = tested on: NOMO1
Procedure, shortened: (§1)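 Viability of medium-adapted leukemia cells was measured by CellTiter-Glo One luminescence after 48 h at 37°C with library compounds in DMSO. Doses were 11 threefold steps from 47 μM to 0.79 nM, in 1536-well plates at 500 or 1000 cells/well. Signals were normalised per plate to DMSO and cell-free wells and fitted with a four-parameter log-logistic model on log10 dose. Area under the curve was integrated by trapezoidal rule, with curves exceeding full viability scaled and failed quality-control curves removed.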

P12-Ichikawa = tested on: P12-Ichikawa
Procedure, shortened: as §1

SEM cells = tested on: SEM cells
Procedure, shortened: as §1

[1] = RPMI 5 mM glucose + 10% dialyzed FBS

SMILES | AUC of viability dose-response curve (NOMO1; HPLM + 10% dialyzed FBS) | AUC of viability dose-response curve (NOMO1; RPMI 5 mM glucose + 10% FBS) | AUC of viability dose-response curve (NOMO1; [1]) | AUC of viability dose-response curve (P12-Ichikawa; HPLM + 10% dialyzed FBS) | AUC of viability dose-response curve (P12-Ichikawa; RPMI 5 mM glucose + 10% FBS) | AUC of viability dose-response curve (P12-Ichikawa; [1]) | AUC of viability dose-response curve (SEM cells; HPLM + 10% dialyzed FBS) | AUC of viability dose-response curve (SEM cells; RPMI 5 mM glucose + 10% FBS) | AUC of viability dose-response curve (SEM cells; [1])
O=c1[nH]c(=O)n(C2CCCO2)cc1F (centres undefined) | 468 | 455 | 447 | 466 | 467 | 470 | 448 | 467 | 469
COc1cc(O)c2c(c1)C(=O)c1cc(C)cc(O)c1C2=O | 416 | 451 | 446 | 451 | 454 | 446 | 427 | 399 | 414
Cn1cc(C[C@@H](N)C(=O)O)c2ccccc21 | 449 | 448 | 440 | 467 | 472 | 469 | 461 | 406 | 467
COc1cc(N2CCC(N(C)C)CC2)ccc1Nc1ncc(Cl)c(Nc2ccccc2P(C)(C)=O)n1 | 333 | 374 | 375 | 338 | 361 | 380 | 288 | 294 | 287
CC(NCCc1ccc(O)cc1)C(O)c1ccc(O)cc1 (centres undefined) | 459 | 446 | 451 | 465 | 469 | 460 | 412 | 452 | 413
CC(O)C1C2C(C)\C(=C(/N2C1=O)C(O)=O)SC3CNC(C3)C(=O)N(C)C (centres undefined) | 416 | 404 | 396 | 432 | 392 | 416 | 395 | 407 | 438
CNC(=O)[C@H](CC/1=C/N=C\2/C=C\C\C=C12)NC(=O)[C@H](CC(C)C)CC(=O)NO | 400 | 413 | 418 | 425 | 423 | 423 | 471 | 462 | 465
CNC(=O)C1=CC=C(C)C(=C1)N2C(=C/C(=C(/Br)C2=O)OCC3=C(F)C=C(F)C=C3)\C | 465 | 456 | 466 | 474 | 466 | 464 | 461 | 465 | 455
CC[C@]1(O)C[C@@H]2CN(CCc3c([nH]c4ccccc34)[C@@](C(=O)OC)(c3cc4c(cc3OC)N(C)[C@H]3[C@@](O)(C(N)=O)[C@H](O)[C@]5(CC)C=CCN6CC[C@]43[C@@H]65)C2)C1 | 223 | 259 | 278 | 231 | 218 | 263 | 250 | 217 | 258
COc1ccc2cc1Oc1ccc(cc1)C[C@H]1c3cc(c(OC)cc3CCN1C)Oc1c(OC)c(OC)cc3c1[C@H](C2)N(C)CC3 | 430 | 451 | 452 | 442 | 447 | 458 | 423 | 432 | 441
OCc1ccc(-c2ccc(-c3ccc(CO)s3)o2)s1 | 437 | 432 | 428 | 429 | 429 | 415 | 450 | 386 | 453
